The target in this assay is Neuronal acetylcholine receptor (Rattus norvegicus) (UniProt P04757+P09483+P12389+P12390+P12392+P43144+Q9JLB5+P12391+P43143+P20420+Q05941). In words: Kapp value towards nicotinic acetylcholine receptor was obtained from three to four independent competition binding experiments using [3H]-NCEPB. In kind it is protein-complex assay.

`Clc1ccc(C2CC3CC[C@H]2N3)cn1` (stereo partly drawn) gave a K app of 0.024 nM.
Compound `Fc1ccc([C@H]2CC3CCC2N3)cn1` (stereo partly drawn) registered a K app of 0.02 nM.
Take `CN1CCC[C@H]1c1cccnc1`: the K app stood at 6.2 nM.

Source of the values: ChEMBL document CHEMBL1130093, “Synthesis and nicotinic acetylcholine receptor binding properties of exo-2-(2'-fluoro-5'-pyridinyl)-7-azabicyclo-[2.2.1]heptane: a new positron emission tomography ligand for nicotinic receptors” (J Med Chem, 1997).
